Data on 2 sequences can be found in paper PMC11642994, “AGC family kinase of Entamoeba histolytica: Decoding the members biochemically” (PLOS Pathogens, 2024).

Assay type in all cases: binding
One assay deals with EhAGCK1 WT (Entamoeba histolytica, UniProt C4M2W0). The assay can be described thus: Microscale Thermophoresis (MST), EhAGCK1 WT. The settings on record: MST, EhAGCK1. As to the method:
(§1) Microscale Thermophoresis (MST) was performed in the presence of full-length and kinase-dead EhAGCK1 and EhAGCK2 proteins, along with HsGSK3, EhRhoGEF, and EhCoactosin peptide substrates. Proteins were labelled using a His-tag labelling kit, RED-tris-NTA 2nd Generation (Nano Temper Technologies, San Francisco, CA, USA). A brief labelling reaction was performed in a buffer containing (50 mM Tris-Cl pH 8, 150 mM NaCl, 1 mM β-ME and 5% glycerol) with a protein concentration of 20 nM and a molar dye: protein ratio of approximately 3:1. The mixture was kept at room temperature for 30 min, followed by centrifugation at 15000 g for 10 min at 4°C. A series of 16 1:1 dilutions were prepared using the same buffer, resulting in peptide concentrations ranging from 500 μM to […]. Following a 10 min incubation, the samples were loaded into standard monolith NT.115 capillaries from Nano Temper Technologies. […] Data from three independently pipetted measurements were analysed using MO. […]
(§2) The kinase assay data presented here are the mean ± standard error (SE) of n≥3 of three independent experiments. The Km and Vmax were determined from a direct, nonlinear fit of [V] versus [S] plots using the Michaelis-Menten equation: V=Vmax[S]/Km+[S] using the GraphPad Prism 9.0 software package (GraphPad Software Inc., CA, USA). […]
(In general: Microscale thermophoresis detects binding through changes in fluorescence in a small temperature gradient.)

The target in a further assay is T1, KDD1 (Entamoeba histolytica, UniProt C4M2W0, D241A/K147A).
T1 sequence (C4M2W0 1-433 K147A/D241A): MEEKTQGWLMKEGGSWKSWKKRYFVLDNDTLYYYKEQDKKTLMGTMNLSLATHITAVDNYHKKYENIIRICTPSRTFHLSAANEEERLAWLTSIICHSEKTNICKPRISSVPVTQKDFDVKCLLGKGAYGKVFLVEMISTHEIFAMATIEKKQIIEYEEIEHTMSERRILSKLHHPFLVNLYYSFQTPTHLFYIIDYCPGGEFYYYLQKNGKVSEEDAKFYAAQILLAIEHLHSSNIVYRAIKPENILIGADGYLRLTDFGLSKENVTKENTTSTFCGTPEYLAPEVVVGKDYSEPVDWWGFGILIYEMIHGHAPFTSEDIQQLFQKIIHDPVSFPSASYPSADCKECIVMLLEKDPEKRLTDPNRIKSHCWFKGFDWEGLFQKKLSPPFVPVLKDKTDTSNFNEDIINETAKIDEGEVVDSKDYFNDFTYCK
Put plainly: Microscale Thermophoresis (MST), kinase-dead EhAGCK1 (KDD1). To be noted: KDD1 (K147A and D241A), Tris-Cl pH 8, 25°C, peptide 500 μM to 153 nM, n = 6. On the procedure:
as §1, §2

Another assay has as its target T2, KDD2 (Entamoeba histolytica, UniProt C4M3C2, D242A/K147A).
T2 sequence (C4M3C2 1-434 K147A/D242A): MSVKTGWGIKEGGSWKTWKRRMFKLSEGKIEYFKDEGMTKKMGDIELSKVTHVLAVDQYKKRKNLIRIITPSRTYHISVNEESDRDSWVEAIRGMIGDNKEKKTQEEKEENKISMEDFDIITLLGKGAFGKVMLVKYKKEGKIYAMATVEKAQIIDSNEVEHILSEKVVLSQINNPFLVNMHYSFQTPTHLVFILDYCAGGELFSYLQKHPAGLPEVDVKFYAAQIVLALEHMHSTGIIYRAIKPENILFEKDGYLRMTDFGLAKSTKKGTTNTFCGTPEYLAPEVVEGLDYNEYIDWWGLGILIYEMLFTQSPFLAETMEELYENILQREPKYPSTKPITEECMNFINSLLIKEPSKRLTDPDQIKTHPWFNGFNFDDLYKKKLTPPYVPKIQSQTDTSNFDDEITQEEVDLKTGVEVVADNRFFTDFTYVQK
The assay can be described thus: Microscale Thermophoresis (MST), kinase-dead EhAGCK2 (KDD2). To be noted: KDD2 (K147A and D242A), Tris-Cl pH 8, 25°C, peptide 500 μM to 153 nM, n = 6. As to the method:
as §1, §2

No end group written: not given here.

The term Kd denotes the equilibrium constant for the complex coming apart. Low readings indicate higher affinity, high ones lower affinity.

SSPSSVPAAQSTTPVNVPK [RhoGEF]: on EhAGCK1 WT, the “KD range in words” value is recorded as “within the nanomolar range”. Binding on KDD1 was characterised by a dissociation constant (Kd) of 11.9 µM.
Sequence KAGGADYSFNTTSN [Coactosin] showed a Kd on KDD2 of 11.9 µM.
